As a reminder, the IC50 is the concentration needed to halve the response being measured. As usually defined, the inhibition is the relative decrease from the control value, in per cent.

A short description of data set [1]: Antiproliferative activity against human MKN45 cells after 72 hrs by methylene blue assay. Conditions: MKN-45, 72 h. Format: functional, cell-based.
Data set [2] concerns HUVEC. The data set can be described thus: Antivascular activity in HUVEC assessed as inhibition of VEGF-induced capillary tube formation at 20 nM after 4 hrs by microscopic analysis relative to control. Format: functional, Homo sapiens. The arrangement: scale not given: the % may be the effect or the level left.
Data set [3] is described as follows: Toxicity in HUVEC assessed as cell viability at 20 nM after 4 hrs relative to control. Conditions: human, HUVEC cells; read-out: Activity. Format: cell-based.
Another data set relates to HT-29. Briefly: Antiproliferative activity against human HT-29 cells after 72 hrs by methylene blue assay. Format: functional, cell-based.
A short description of data set [4]: Antiproliferative activity against human KB-VIN10 cells expressing P-gp170/MDR after 72 hrs by methylene blue assay. Format: functional, cell-based. Conditions: KB-VIN10, 72 h.
The next data set concerns KB. The data set can be described thus: Antiproliferative activity against human KB cells after 72 hrs by methylene blue assay. The data set is classed as functional, cell-based.
Data set [5] can be described thus: Antiproliferative activity against human KB-S15 cells expressing P-gp170/MDR after 72 hrs by methylene blue assay. Format: functional, cell-based. Conditions: KB-S15, 72 h.
Data set [6] can be described thus: Antiproliferative activity against human KB-7d cells expressing MRP after 72 hrs by methylene blue assay. Format: functional, cell-based. Conditions: KB7D.
The target in another data set is Tubulin (Bos taurus, UniProt Q6B856+Q862F3). Briefly: Inhibition of bovine brain tubulin polymerization after 30 mins.
The target of another data set is Tubulin (Homo sapiens) (UniProt P68371+Q9H4B7+P0DPH7+P68366+Q13509+Q71U36+P04350+Q3ZCM7+P07437+P68363+Q9BQE3+Q6PEY2+Q13885+Q9BVA1+Q9BUF5). The data set can be described thus: Displacement of 1 uM of [3H]colchicine from biotin-labeled tubulin (unknown origin) after 2 hrs by scintillation proximity assay. Format: protein-complex assay.
Data set [7] concerns HUVEC. The data set can be described thus: Antivascular activity in HUVEC assessed as inhibition of VEGF-induced capillary tube formation at 50 nM after 4 hrs by microscopic analysis relative to control. Format: functional, Homo sapiens. The arrangement: scale not given: the % may be the effect or the level left.
For data set [8], the system named is HUVEC. Briefly: Antivascular activity in HUVEC assessed as inhibition of VEGF-induced capillary tube formation at 100 nM after 4 hrs by microscopic analysis relative to control. Format: functional, Homo sapiens. The arrangement: scale not given: the % may be the effect or the level left.
For data set [9], the system named is HUVEC. The data set can be described thus: Antivascular activity in HUVEC assessed as inhibition of VEGF-induced capillary tube formation at 500 nM after 4 hrs by microscopic analysis relative to control. The data set is classed as functional, Homo sapiens. The arrangement: scale not given: the % may be the effect or the level left.
Data set [10] relates to HUVEC. Briefly: Antivascular activity in HUVEC assessed as inhibition of VEGF-induced capillary tube formation at 2500 nM after 4 hrs by microscopic analysis relative to control. The arrangement: scale not given: the % may be the effect or the level left. The data set is classed as functional, Homo sapiens.
Data set [11] in a line: Toxicity in HUVEC assessed as cell viability at 50 nM after 4 hrs relative to control. The data set is classed as cell-based. Conditions: human, HUVEC cells; read-out: Activity.
Data set [12] is described as follows: Toxicity in HUVEC assessed as cell viability at 100 nM after 4 hrs relative to control. Format: cell-based. Conditions: human, HUVEC cells; read-out: Activity.
Data set [13] can be described thus: Toxicity in HUVEC assessed as cell viability at 500 nM after 4 hrs relative to control. Format: cell-based. Conditions: human, HUVEC cells; read-out: Activity.
A short description of data set [14]: Toxicity in HUVEC assessed as cell viability at 2500 nM after 4 hrs relative to control. Format: cell-based. Conditions: human, HUVEC cells; read-out: Activity.

The structures appear in SMILES notation. Calls of active or inactive are those of the source. No cut-off for these calls is given here.

Tubulin, sequence (Q6B856 whole entry): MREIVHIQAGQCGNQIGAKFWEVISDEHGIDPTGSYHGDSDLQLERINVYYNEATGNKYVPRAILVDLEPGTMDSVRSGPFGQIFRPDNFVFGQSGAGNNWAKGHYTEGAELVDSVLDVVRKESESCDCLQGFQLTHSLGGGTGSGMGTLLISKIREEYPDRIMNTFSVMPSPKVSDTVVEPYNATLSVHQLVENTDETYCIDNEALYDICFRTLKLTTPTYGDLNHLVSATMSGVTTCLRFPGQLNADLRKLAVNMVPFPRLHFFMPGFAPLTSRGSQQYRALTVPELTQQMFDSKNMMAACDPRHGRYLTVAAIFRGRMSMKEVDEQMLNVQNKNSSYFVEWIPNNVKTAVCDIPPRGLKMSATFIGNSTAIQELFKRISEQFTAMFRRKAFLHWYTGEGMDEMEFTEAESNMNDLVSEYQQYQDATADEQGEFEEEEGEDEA
Tubulin, sequence (Q862F3 whole entry): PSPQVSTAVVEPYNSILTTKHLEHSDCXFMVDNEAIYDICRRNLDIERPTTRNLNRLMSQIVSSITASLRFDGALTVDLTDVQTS

Take `COc1ccc(/C=C\c2cc(OC)c(OC)c(OC)c2)cc1O` [COMBRETASTATIN A4]: half-maximal inhibition in data set [1] (IC50) was put at 3.2 nM. For the same compound, the Activity in the data set on HUVEC [2] was 0%. In addition, in data set [3], the viability at 4 h, 0.02 µM amounted to 94%.

Take `COc1cc(C(=O)c2ccc3c(ccn3C)c2)c(O)c(OC)c1OC`: in the data set on HT-29, the result was Active. The IC50 came out at 20.8 nM in [4]; 33 nM in the data set with KB; 93.7 nM in data set [1]; 16.2 nM in data set [5]; 18.2 nM in data set [6]; 4900 nM against Tubulin. In addition, at Tubulin (Homo sapiens), the inhibition was found to be 84.4%. Besides, the Activity with HUVEC [7] came to 72%; in the data set with HUVEC [8], 53%; in the data set on HUVEC [9], 41%; with HUVEC [10], 0%. For the same compound, the viability at 4 h, 0.05 µM in data set [11] came to 95%. Also, the viability at 4 h, 0.1 µM in data set [12] is 94%. Further, the viability at 4 h, 0.5 µM in [13] came out at 97%. Besides, in data set [14], the viability at 4 h, 2.5 µM was found to be 95%.

As to `CC[C@]1(O)C[C@H]2CN(CCc3c([nH]c4ccccc34)[C@@](C(=O)OC)(c3cc4c(cc3OC)N(C=O)[C@H]3[C@@](O)(C(=O)OC)[C@H](OC(C)=O)[C@]5(CC)C=CCN6CC[C@]43[C@@H]65)C2)C1` [VINCRISTINE], the IC50 turned out to be 2.1 nM in data set [5] and 1.5 nM in data set [6].

For the compound `COc1ccc2nc(C(=O)c3cc(OC)c(OC)c(OC)c3O)ccc2c1`, the result in the data set on HT-29 was Active. Besides, the IC50 worked out at 230 nM with KB and 1160 nM in data set [1].

With `CC(=O)O[C@H]1C(=O)[C@@]2(C)[C@H]([C@H](OC(=O)c3ccccc3)[C@]3(O)C[C@H](OC(=O)[C@H](O)[C@@H](NC(=O)c4ccccc4)c4ccccc4)C(C)=C1C3(C)C)[C@]1(OC(C)=O)CO[C@@H]1C[C@@H]2O` [PACLITAXEL], 8.4 nM corresponded to half-maximal inhibition in data set [6] (IC50).

In data set [5], `COc1cc([C@@H]2c3cc4c(cc3[C@@H](O[C@@H]3O[C@@H]5CO[C@@H](C)O[C@H]5[C@H](O)[C@H]3O)[C@H]3COC(=O)[C@H]23)OCO4)cc(OC)c1O` [ETOPOSIDE] came in with an IC50 of 3500 nM.

As for `COc1cc(C(=O)c2cccc3c2ccn3C)c(O)c(OC)c1OC`, the result with HT-29 was Active. Also, the half-maximal inhibitory concentration (IC50) came out at 42.8 nM in data set [4]; 57.3 nM with KB; 55.4 nM in [1]; 32.6 nM in data set [5]; 40 nM in data set [6]; 8200 nM against Tubulin. Further, the inhibition at Tubulin (Homo sapiens) stood at 66.3%.

With `COc1cc(C(=O)c2ccc3ncccc3c2)c(O)c(OC)c1OC`, the outcome with HT-29 was Active. In addition, the figures for the half-inhibitory concentration (IC50) (in the data set on KB; in [1]) were 22.9 nM and 116 nM, respectively.

For the compound `COc1cc(C(=O)c2ccnc3ccccc23)c(O)c(OC)c1OC`, the outcome in the data set with HT-29 was Active. Moreover, the values for the half-inhibitory concentration (IC50) (in the data set on KB; in data set [1]) were 7700 nM and 5960 nM, respectively.

As for `COc1ccc2c(C(=O)c3cc(OC)c(OC)c(OC)c3O)c[nH]c2c1`, the result with HT-29 was Active. In addition, the half-maximal inhibitory concentration (IC50) in data set [4] came to 9.5 nM; with KB, 8.8 nM; in [1] it was 10.5 nM; in [5], 5.8 nM; in data set [6], 8.5 nM; at Tubulin, 4200 nM. The inhibition on Tubulin (Homo sapiens) was determined as 87.2%. The Activity in the data set with HUVEC [7] came to 72%; in the data set on HUVEC [8], 49%; in the data set on HUVEC [9], 0%; in the data set on HUVEC [10], 0%. The viability at 4 h, 0.05 µM in data set [11] was 100%. The viability at 4 h, 0.1 µM in data set [12] came to 96%. Further, the viability at 4 h, 0.5 µM in data set [13] worked out at 93%. In addition, in data set [14], the viability at 4 h, 2.5 µM worked out at 99%.

These data come from ChEMBL document CHEMBL3593220, “Antimitotic and antivascular activity of heteroaroyl-2-hydroxy-3,4,5-trimethoxybenzenes” (Bioorg Med Chem, 2015).
